Key:
[1] = biological target: T1, Dihydropteroate synthase (Escherichia coli K-12) (UniProt P0AC13); assay: Inhibition of E. uM; settings: concentration not given here
T1 sequence (whole entry): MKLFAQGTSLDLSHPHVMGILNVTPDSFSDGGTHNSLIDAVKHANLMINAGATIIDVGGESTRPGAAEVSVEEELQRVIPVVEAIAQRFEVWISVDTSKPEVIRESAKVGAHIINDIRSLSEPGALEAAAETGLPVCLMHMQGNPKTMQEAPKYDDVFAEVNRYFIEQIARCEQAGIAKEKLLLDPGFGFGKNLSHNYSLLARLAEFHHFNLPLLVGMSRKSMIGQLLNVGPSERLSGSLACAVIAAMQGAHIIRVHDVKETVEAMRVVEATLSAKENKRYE

Lacticaseibacillus casei [2] = assay: Antimicrobial activity against Lactobacillus casei MTX-resistant strain; type: functional; parameters: unit not given here
Enterococcus faecium [3] = assay: Antimicrobial activity against Streptococcus faecium strain, ATCC 8043; type: functional
Lacticaseibacillus casei [4] = assay: Antimicrobial activity against Lactobacillus casei strain ATCC 7469; type: functional; parameters: unit not given here
Enterococcus faecium [5] = assay: Antimicrobial activity against Streptococcus faecium strain, MTX-resistant; type: functional; parameters: unit not given here
Thymidylate synthase [6] = biological target: T2, Thymidylate synthase (Lactobacillus casei, UniProt P00469); assay: Evaluated for the inhibition of thymidylate synthase in Lactobacillus casei; parameters: species or system Lacticaseibacillus casei
T2 sequence (P00469 whole entry): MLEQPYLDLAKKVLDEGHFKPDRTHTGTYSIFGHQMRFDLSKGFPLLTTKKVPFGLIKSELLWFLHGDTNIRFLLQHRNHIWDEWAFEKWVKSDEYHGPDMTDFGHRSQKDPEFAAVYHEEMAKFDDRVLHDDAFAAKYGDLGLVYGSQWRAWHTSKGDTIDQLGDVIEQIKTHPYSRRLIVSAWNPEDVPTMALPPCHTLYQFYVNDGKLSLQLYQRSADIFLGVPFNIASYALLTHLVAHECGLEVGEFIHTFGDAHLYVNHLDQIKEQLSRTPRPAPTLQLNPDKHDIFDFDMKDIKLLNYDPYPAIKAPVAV

Dihydrofolate reductase = Dihydrofolate reductase (Lactobacillus casei, UniProt P00381); assay: Evaluated for the inhibition of dihydrofolate reductase in Lactobacillus casei; parameters: species or system Lacticaseibacillus casei
Sequence of Dihydrofolate reductase (P00381 whole entry): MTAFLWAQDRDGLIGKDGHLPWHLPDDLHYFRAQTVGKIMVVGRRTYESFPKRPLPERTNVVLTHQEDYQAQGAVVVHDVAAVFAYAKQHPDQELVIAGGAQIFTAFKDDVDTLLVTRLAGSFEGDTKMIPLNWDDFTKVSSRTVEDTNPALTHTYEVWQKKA

Thymidylate synthase [7] = biological target: T3, Thymidylate synthase (Mus musculus, UniProt P07607); assay: Evaluated for the inhibition of thymidylate synthase in intact L1210 cells; type: cell-based
T3 sequence (P07607 whole entry): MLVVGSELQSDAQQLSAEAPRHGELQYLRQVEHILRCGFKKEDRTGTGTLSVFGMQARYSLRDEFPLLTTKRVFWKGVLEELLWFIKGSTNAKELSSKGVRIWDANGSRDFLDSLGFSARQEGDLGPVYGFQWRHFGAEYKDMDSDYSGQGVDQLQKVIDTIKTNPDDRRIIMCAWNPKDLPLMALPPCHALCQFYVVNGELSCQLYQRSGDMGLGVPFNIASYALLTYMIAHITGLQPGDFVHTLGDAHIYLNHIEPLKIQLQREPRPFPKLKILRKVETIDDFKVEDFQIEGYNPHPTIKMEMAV

Thymidylate synthase [8] = biological target: T3, Thymidylate synthase; assay: Evaluated for the inhibition of thymidylate synthase in permeabilised L1210 cells; type: cell-based
[9] = tested on: Thymidylate synthase (Bos taurus); assay: Inhibition of Calf thymus thymidylate synthase in the presence of 20 uM
Enterococcus faecium [10] = assay: Antimicrobial activity against Streptococcus faecium strain ATCC 8043; type: functional; parameters: unit not given here

| Structure (SMILES) | inhibition [1] | Activity (Lacticaseibacillus casei [2]) | Activity (Enterococcus faecium [3]) | Activity (Lacticaseibacillus casei [4]) | Activity (Enterococcus faecium [5]) | IC50 (Thymidylate synthase [6]) | IC50 (Dihydrofolate reductase) | IC50 (Thymidylate synthase [7]) | IC50 (Thymidylate synthase [8]) | inhibition [9] | Activity (Enterococcus faecium [10]) |
| --- | --- | --- | --- | --- | --- | --- | --- | --- | --- | --- | --- |
| CN(CC1CCc2nc(N)nc(O)c2C1)c1ccc(C(=O)NC(CCC(=O)O)C(=O)O)cc1 (configuration not stated) | 35.1% | >20000 | 0.57 | 2.8 | 13 |  |  |  |  |  |  |
| Nc1nc(O)c2c(n1)CCC(CNc1ccc(C(=O)NC(CCC(=O)O)C(=O)O)cc1)C2 (configuration not stated) |  | >20000 | 140 | 7.5 | 900 | > 280 µM | 30 µM | 1000 µM | 12 µM |  |  |
| C#CCN(CC1CCc2nc(N)nc(O)c2C1)c1ccc(C(=O)NC(CCC(=O)O)C(=O)O)cc1 (configuration not stated) |  | >10000 | 1.8 | 4.7 | 350 | 23 µM | 10 µM | 1100 µM | 11 µM | 50% |  |
| C#CCN(CC1CCc2nc(N)nc(O)c2C1)c1ccc(C(=O)O)cc1 (configuration not stated) |  | >20000 |  | 1000 | 14000 | 610 µM | 190 µM |  |  |  | 26 |
| CN(CC1CCc2nc(N)[nH]c(=O)c2C1)c1ccc(C(=O)NC(CCC(=O)O)C(=O)O)cc1 (configuration not stated) |  |  |  |  |  | 120 µM | 16 µM |  |  |  |  |
| Nc1nc(O)c2c(n1)CCC(CBr)C2 (configuration not stated) | 7% |  |  |  |  |  |  |  |  |  |  |
| Nc1nc(O)c2c(n1)CCC(CO)C2 (configuration not stated) | 1.3% |  |  |  |  |  |  |  |  |  |  |
| C#CCN(Cc1ccc2[nH]c(N)nc(=O)c2c1)c1ccc(C(=O)NC(CCC(=O)O)C(=O)O)cc1 (configuration not stated) |  | 6400 |  | 0.4 | 20 |  |  |  |  |  | 0.13 |
| CN(CC1CCc2nc(N)nc(O)c2C1)c1ccc(C(=O)O)cc1 (configuration not stated) |  | >20000 |  | 15800 | 8200 | > 200 µM | > 200 µM |  |  |  | 5.2 |
| Nc1nc(O)c2c(n1)CCC(CNc1ccc(C(=O)O)cc1)C2 (configuration not stated) |  |  |  | >20000 | >20000 | > 200 µM | > 200 µM |  |  |  | 400 |
